Laboratory results from patent US10407388B2, “Thiourea derivatives as activators of RORα and pharmaceutical composition containing same” (SEOUL NATIONAL UNIVERSITY R & DB FOUNDATION, priority 2011, dated 2019).

Experiments:
LXRα = assay: Expression of LXRα protein in HepG2 cells, western blotting; format: cell-based, human; conditions: for expression of LXRα protein: 100 μM, 24 hours, FIG. 6a
Experimental: (§1) HepG2 cells (1×10^6 cells/well) were seeded on a 60-dish and cultured overnight in a DMEM containing 10% FBS. The HepG2 cells were maintained at 37° C. in a humidification thermostat containing 5% CO2 and 95% air. After culturing, the HepG2 cells were treated with each of the JC1-38, JC1-40, and JC1-42 compounds at a concentration of 100 μM, and, as a positive control, the HepG2 cells were treated with 2 mM metformin, which is an AMPK activator, for 24 hours. After treatment, the expression of proteins was analyzed by western blotting analysis. That is, after treatment, the HepG2 cells were destroyed on ice in a lysis buffer containing 50 mM NaCl, 50 mM Tris pH 7.4, 5 mM EDTA, 1% NP-40, and a protease inhibitor for 30 minutes, and then centrifuged to obtain a total cell lysate. 20 μg to 30 μg of proteins collected from the total cell lysate was subjected to 7% to 9% sodium dodecyl sulfate-polyacrylamide gel electrophoresis (SDS-PAGE), and was transferred to a polyvinylidene difluoride membrane (Millipore, Bedford, Mass., USA). The resulting product was subjected to blocking with 5% or 10% (w/v) nonfat dry milk in PBS containing 0.1% Tween-20, and was reacted with antibodies specific to RORα (Affinity BioReagents), LXRα, SREBP-1, FAS (Santa Cruz Biotechnology), phospho-ACC (Cell signaling), and α-tubulin (Calbiochem). Immunoreactive proteins were detected with Amersham ECL western blotting detection reagents using a horseradish peroxidase (HRP)-conjugated secondary antibody (Zymed Lab). Protein concentrations were quantified by bicinchoninic acid (BCA) (Pierce) analysis, and the expression of α-tubulin was monitored as a control. The results thereof are illustrated in FIG. 6a.
(§2) In addition, HepG2 cells were cultured under the same conditions, and then the HepG2 cells were treated with particular concentrations (0 μM, 1 μM, 10 μM, 50 μM, and 100 μM) of JC1-40 (or JC1-42) and 1 μM T17 for 24 hours. After treatment, the expression of proteins was analyzed by western blotting analysis, and the expression of α-tubulin was monitored as a control. The results thereof are illustrated in FIGS. 6b and 6c.

RORα = biological target: T1, RORα (Homo sapiens, UniProt P35398); assay: Transcriptional activity of RORα, RORE-tk-Luc reporter in CV-1 cells (Experimental Example 1); format: cell-based; conditions: for Fold Activation: JC1 compounds 100 μM, 24 hours, luciferase activity standardized by β-gal, versus control treated only with solvent
T1 construct: expressed in transfected cells; host or cells: CV-1 cells (ATCC CCL-70)
T1 sequence (P35398 1-523): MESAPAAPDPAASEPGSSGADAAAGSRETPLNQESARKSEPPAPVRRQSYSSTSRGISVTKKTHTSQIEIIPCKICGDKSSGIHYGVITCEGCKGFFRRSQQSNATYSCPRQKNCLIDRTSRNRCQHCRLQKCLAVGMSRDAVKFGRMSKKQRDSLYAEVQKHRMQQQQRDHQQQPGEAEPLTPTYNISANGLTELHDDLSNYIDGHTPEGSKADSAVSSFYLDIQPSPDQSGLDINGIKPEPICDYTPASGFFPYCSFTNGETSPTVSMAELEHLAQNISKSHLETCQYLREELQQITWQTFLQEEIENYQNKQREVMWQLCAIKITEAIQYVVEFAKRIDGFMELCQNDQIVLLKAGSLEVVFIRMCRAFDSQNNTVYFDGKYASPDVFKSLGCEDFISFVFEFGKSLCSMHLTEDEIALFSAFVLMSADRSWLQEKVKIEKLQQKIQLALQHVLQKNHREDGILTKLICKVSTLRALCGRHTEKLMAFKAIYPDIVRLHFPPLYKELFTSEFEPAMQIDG
Experimental: CV-1 cells (CCL-70) were purchased from American Type Culture Collection (ATCC). The CV-1 cells (4×10^4 cells/well) were seeded on a 24-well culture plate and cultured overnight in a Dulbecco's Modified Eagle's Medium (DMEM) containing 10% fetal bovine serum (FBS). The CV-1 cells were maintained at 37° C. in a humidification thermostat containing 5% CO2 and 95% air. After culturing, the cells were transformed with RORE-tk-Luc reporter plasmid (100 ng) and ROR expression vector (5 ng) using calcium phosphate. […]

SREBP-1 [1] = assay: Transcriptional activity of SREBP-1, SRE-Luc reporter in HepG2 cells treated with T17; format: cell-based, human; conditions: 50 μM with 1 μM T17, 24 hours; FIG. 5b
Experimental: In addition, HepG2 cells were cultured under the same conditions, and then the HepG2 cells were transformed with SRE-Luc reporter (0.1 μg) using Welfect-EXTM Plus (WelGENE Inc., Korea). 24 hours after transformation, the HepG2 cells were treated with each of the JC1-38, JC1-40, and JC1-42 compounds at a concentration of 50 μM and 1 μM T17 (T0901317) for 24 hours. Subsequently, cell lysates were collected, and luciferase activity was analyzed and determined using an analytical luminescence luminometer. The luciferase activity was standardized by β-gal activity to determine transcriptional efficiency, and data was attained as the mean and SD for three independent experimental results, and the results thereof are illustrated in FIG. 5b.

SREBP-1 [2] = assay: Expression of SREBP-1 protein in HepG2 cells, western blotting; format: cell-based, human; conditions: for expression of SREBP-1, which had been increased by T17: 0, 1, 10, 50, 100 μM with 1 μM T17, 24 hours, FIGS. 6b and 6c; for expression of proteins (LXRα, SREBP-1, FAS of FIGS. 6b and 6c): 50 μM to 100 μM with 1 μM T17, 24 hours; for expression of SREBP-1 protein: 100 μM, 24 hours, FIG. 6a
Experimental: as §1, §2

ACO2 = assay: Fatty acid oxidation gene ACO2 in HepG2 cells, real-time RT-PCR; format: cell-based, human; conditions: 100 μM, 24 hours; FIG. 8
Experimental: (§3) HepG2 cells (1×10^6 cells/well) were seeded on a 60-dish and cultured overnight in a DMEM containing 10% FBS. The HepG2 cells were maintained at 37° C. in a humidification thermostat containing 5% CO2 and 95% air. After culturing, the HepG2 cells were treated with JC1-38, JC1-40, and JC1-42 at a concentration of 100 μM for 24 hours. After treatment, effects thereof on transcriptional activity were analyzed by real-time reverse transcriptase-polymerase chain reaction (real-time RT-PCR) analysis. The PCR was performed using the following primers respectively specific to MCAD, ACO1, ACO2, HMGCS2, CPT-1, and ACS, which are involved in fatty acid oxidation: […]

ApoB100 = assay: VLDL secretion gene ApoB100 in HepG2 cells, RT-PCR; format: cell-based, human; conditions: 100 μM, 24 hours; FIG. 9b
Experimental: as §3, with “60-dish,” for “60-dish”, “RT-PCR” for “real-time reverse transcriptase-polymerase chain reaction (real-time RT-PCR)”, “CD36 (see FIG. 9a) involved in fatty acid uptake” for “MCAD, ACO1, ACO2, HMGCS2, CPT-1,”, “MTTP and ApoB100 (see FIG. 9b),” for “ACS,”, “the secretion of very low density lipoproteins:” for “fatty acid oxidation:”

| Fold Activation (RORα) | activity (transcriptional activity of RORα) (RORα; 100 μM, relative to control treated only with a solvent) [%] | Structure (SMILES) | expression of LXRα protein (LXRα) | transcriptional activity of SREBP-1, which had been increased by T17 (SREBP-1 [1]) | expression of SREBP-1, which had been increased by T17 (SREBP-1 [2]) | expression of proteins (LXRα, SREBP-1, FAS of FIGS. 6b and 6c) (SREBP-1 [2]) | expression of SREBP-1 protein (SREBP-1 [2]) | transcriptional activity of ACO2 (ACO2) | transcriptional activity of ApoB100 (ApoB100) | expression of LXRα, which had been increased by T17 (LXRα; 0, 1, 10, 50, 100 μM with 1 μM T17, 24 hours, FIG. 6c) |
| --- | --- | --- | --- | --- | --- | --- | --- | --- | --- | --- |
| 3.6 | – | CNC(=S)NCc1ccc(OCc2ccccc2)cc1 [Compound 40, 1-(4-benzyloxy-benzyl)-3-methyl-thiourea] | decreased | decreased | decreased in a manner dependent on the concentration | strongly inhibited | decreased | increased | increased | – |
| 4.6 | 460 | CNC(=S)NCc1ccc(Oc2ccccc2)cc1 [Compound 42, 1-(4-phenoxy-benzyl)-3-methyl-thiourea] | decreased | decreased | decreased in a manner dependent on the concentration | strongly inhibited | decreased | increased | increased | decreased in a manner dependent on the concentration |

| Structure (SMILES) | Fold Activation (RORα) | activity (transcriptional activity of RORα) (RORα; 100 μM, relative to control treated only with a solvent) [%] | expression of LXRα protein (LXRα) | transcriptional activity of SREBP-1, which had been increased by T17 (SREBP-1 [1]) | expression of SREBP-1, which had been increased by T17 (SREBP-1 [2]) | expression of proteins (LXRα, SREBP-1, FAS of FIGS. 6b and 6c) (SREBP-1 [2]) | expression of SREBP-1 protein (SREBP-1 [2]) | transcriptional activity of ACO2 (ACO2) | transcriptional activity of ApoB100 (ApoB100) | expression of LXRα, which had been increased by T17 (LXRα; 0, 1, 10, 50, 100 μM with 1 μM T17, 24 hours, FIG. 6c) |
| --- | --- | --- | --- | --- | --- | --- | --- | --- | --- | --- |
| CNC(=S)NCc1ccccc1-c1ccncc1 [Compound 38, 1-methyl-3-(4-pyridinyl-2-benzyl)-thiourea] | 1.9 | – | decreased | decreased | – | – | decreased | increased | increased | – |
